Measured values published in paper PMC4217095 (Emerging Microbes & Infections, 2014).

Target: MDk/W452(H5N8) NA (Influenza A virus, UniProt A0A088CBR8)
Assay type: biochemical

CCC(CC)[C@H](NC(C)=O)[C@@H]1[C@H](O)[C@@H](C(=O)O)C[C@H]1N=C(N)N [Peramivir, peramivir]
Sensitivity of virus to NA inhibitor (assessment of the IC50): sensitive

CC(=O)N[C@H]1[C@H]([C@H](O)[C@H](O)CO)OC(C(=O)O)=C[C@@H]1N=C(N)N [Zanamivir, zanamivir]
Sensitivity of virus to NA inhibitor (assessment of the IC50): sensitive
